Article PMC8536124 (International Journal of Molecular Sciences, 2021)
pIC50: −log10 of the molar value. “Also recorded” adds a separate entry of the source. Where two headings read alike, the source gives them in different places.

Columns and labels:
[1] = system: HeLa, MCF-7, HepG2, B16, and A375 cancer cell lines; design: method as in PMID 21496972; conditions: MCF-7, HepG2, B16, A375; cited from earlier work
[2] = system: CCRF-CEM cell line; design: method as in PMID 27425639; conditions: cited from earlier work
[3] = system: NCI-60 cancer cell line panel; test: NCI-60 screening (SRB), full panel; assay type: cell-based, human; conditions: 1 dose 10 µM; for activity at 10 µM: Homo sapiens, 60 cell lines, 48 h
Text: (§1) The experimental data allow the assessment of the cytostatic effect, indicated by growth inhibition values ranging between 0 and 100, as well as of the cytotoxic effect, indicated by negative values.
(§2) The mean GI50 (molar concentration of the compound that inhibits 50% net cell growth), TGI (molar concentration of the compound leading to the total inhibition), and LC50 (molar concentration of the compound leading to 50% net cell death (presented in negative logarithm)) values across each cell line are shown in Table 2.
(§3) The selectivity index (SI), calculated as the ratio between the full panel MG_MID60 (μM) of compounds 4, 6, and 9 by their respective subpanels MG_MID of the cell line (μM), was introduced as a quantification tool for the selectivity of each compound in terms of anticancer effect (Table 3).
(§4) Primary anticancer assays were performed according to the NCI protocol, as described elsewhere (see e.g., http://dtp.nci.nih.gov accessed on 1 November 2018). The compounds were added at a single concentration, and the cell cultures were incubated for 48 h. The end point determinations were made with a protein-binding dye, sulforhodamine B (SRB). […] The percentage of growth was evaluated spectrophotometrically versus controls not treated with test agents after 48 h exposure and using SRB protein assay to estimate cell viability or growth. Three antitumor activity dose-response parameters were calculated for each cell line. Furthermore, mean graph midpoints (MG_MID) were calculated for each of the parameters, giving an average activity parameter over all cell lines for the tested compound. For the MG_MID calculation, insensitive cell lines were included with the highest concentration tested.

[4] = system: Leukemia; test: NCI-60 screening (SRB), subpanel; assay type: cell-based; conditions: leukemia cancer cell lines; 1 dose 10 µM
Text: as §1, §2, §3, §4

[5] = system: HL-60(TB); test: NCI-60 screening (SRB); assay type: cell-based, human; conditions: HL-60(TB) (Leukemia); 1 dose 10 µM
[6] = system: A498; test: NCI-60 screening (SRB); assay type: cell-based, human; conditions: A498 renal cancer; 1 dose 10 µM
[7] = system: CAKI-1; test: NCI-60 screening (SRB); assay type: cell-based, human; conditions: CAKI-1 (Renal cancer); 1 dose 10 µM
[8] = system: LOX IMVI; test: NCI-60 screening (SRB); assay type: cell-based, human; conditions: LOXIMVI (Melanoma); 1 dose 10 µM
[9] = system: KB oral epidermoid cancer cells; design: method as in doi:10.1007/BF02974180, PMID 15694457; conditions: cited from earlier work
[10] = system: HONE-1 nasopharyngeal cancer cells; design: method as in doi:10.1007/BF02974180, PMID 15694457; conditions: cited from earlier work
[11] = system: NIH3T3 noncancer murine fibroblast cells; design: method as in PMID 26044356; conditions: NIH3T3 noncancer murine fibroblasts; cited from earlier work
[12] = system: HCT15 colon cancer cells; design: method as in doi:10.1007/BF02974180, PMID 15694457; conditions: cited from earlier work
[13] = system: HT29 colorectal cancer cells; design: method as in doi:10.1007/BF02974180, PMID 15694457; conditions: cited from earlier work
[14] = system: A549 non-small lung cancer cells; design: method as in doi:10.1007/BF02974180, PMID 15694457; conditions: cited from earlier work
[15] = system: T-lymphoblastic leukemia, breast adenocarcinoma, and cervical cancer cells; conditions: cited from earlier work

Compound | Positive Cytostatic Effect (cell lines with percent growth 0 to 50 / total) [3] | Positive Cytotoxic Effect (cell lines with percent growth <0 / total) [3] | antiproliferative effect in one dose primary screening [3] | activity at 10 µM ([3]; read-out: Mean Growth, %) | activity at 10 µM ([3]; read-out: Range of Growth, %) | further results
3,23-dihydroxy-17-piperazinyl betulinic amide | – | – | – | – | – | pIC50 [1]: > 5.00
C=C(C)C1CCC2(C(=O)N3CCNCC3)CCC3(C)C(CCC4C5(C)CCC(O)C(C)(C)C5CCC43C)C12 (centres unmarked) [Betulinic acid piperazinyl amide] | – | – | – | – | – | pIC50 [2]: 6.10
CCN1CCN(C(=O)[C@]23CCC(C)(C)C[C@H]2C2=CC[C@@H]4[C@@]5(C)CCC(=O)C(C)(C)[C@@H]5CC[C@@]4(C)[C@]2(C)CC3)CC1 [Compound 3, N-(3-oxo-olean-12-en-28-oyl)-ethylpiperazine] | 5/59 | 7/59 | moderate growth inhibition activity | 46% | -35.8 to 80.4% | growth percentages, range [4]: −35.82 to 37.47%; Growth % [5]: −35.82%; Growth % [6]: −7.95%
CCN1CCN(C(=O)[C@]23CCC(C)(C)C[C@H]2C2=CC[C@@H]4[C@@]5(C)C/C(=C/c6ccccn6)C(=O)C(C)(C)[C@@H]5CC[C@@]4(C)[C@]2(C)CC3)CC1 [Compound 5, N-(2-{2-Pyridinylidene}-3-oxoolean-12-en-28-oyl)-ethylpiperazine] | 0/59 | 0/59 | do not exhibit antiproliferative effects; also recorded: do not induce any significant antiproliferative activity | 86.7% | 49.2 to 115% | Growth % [7]: 49.25%
CCN1CCN(C(=O)[C@]23CC[C@@H](C)[C@H](C)[C@H]2C2=CC[C@@H]4[C@@]5(C)C/C(=C/c6ccccn6)C(=O)C(C)(C)[C@@H]5CC[C@@]4(C)[C@]2(C)CC3)CC1 [Compound 8] | 0/59 | 0/59 | do not exhibit antiproliferative effects; also recorded: do not induce any significant antiproliferative activity | 92.4% | 74.8 to 108% | Growth % [8]: 74.76%
C[C@H]1[C@H](C)CC[C@]2(C(=O)O)CC[C@]3(C)C(=CC[C@@H]4[C@@]5(C)CCC(=O)C(C)(C)[C@@H]5CC[C@]43C)[C@H]12 [Ursonic acid] | – | – | – | – | – | pIC50 [9]: 5.40; pIC50 [10]: 5.28; pIC50 [11]: < 4.30; pIC50 [12]: 5.34; pIC50 [13]: 5.20; pIC50 [14]: 5.11
C=C(C)C1CCC2(C(=O)N3CCNCC3)CCC3(C)C(CCC4C5(C)CCC(O)C(C)(C)C5CCC43C)C12 (centres unmarked) [piperazine amide of betulinic acid] | – | – | – | – | – | cytotoxicity [15]: 0.7 to 7.8 µM
